“Also recorded” adds a separate entry of the source.
Tests used:
[1] = system: SMA-like mice (hSMN2 Smn-/-); test: Treatment of types 2 and 3 SMA-like mice via drinking water; assay type: in vivo, mouse
From the text: To generate hSMN2 Smn^−/− mice, hSMN2 Smn^+/− mice were crossed to Smn^+/− mice. Progeny lacking the murine SMN locus were identified by genotyping. The presence of the hSMN2 transgene was also confirmed.
These mice frequently developed chronic necrosis of the tail tip, muscular atrophy, subcutaneous edema in hindlimbs, and paralysis of hindlimbs. Type 3 mice survived and bred normally. The mild symptoms of these mice include short but enlarged tails.
The effect of sodium butyrate on the symptoms of SMA-like mice were investigated. Sodium butyrate was administered to ten SMA-like mice with type 2 symptoms and ten SMA-like mice with type 3 symptoms. These mice were identified at birth by genotype and phenotype. Thereafter, their drinking water was supplemented with a 0.8 μg/ml or an 8 μg/ml solution of sodium butyrate. The drinking water was available ad libitum. The amount of sodium butyrate taken by SMA-like mice was estimated to be approximate 4-80 μg/day. The survival time of sodium butyrate-treated type 2 SMA-like mice was longer, about 4 to 5 days longer on average, than untreated mice.
The effect of sodium butyrate administration on the tail phenotype of SMA-like mice was also monitored. The tails of untreated types 2 and 3 SMA-like mice have decreased diameter of muscle fibers, atrophy of muscle bundles, group atrophy and subcutaneous edema (Hsieh-Li et al. (2000) supra). […] The tail of a treated mouse was about 5 cm long on average, whereas the tail of an untreated mouse was about 1 cm long. Remarkably, the average length of the tail of treated mice, 5 cm, is close to the average length for wild-type mice, 6 cm.

exon 7 of the SMN2 gene = test: RT-PCR analysis of SMN exon 7 expression in EBV transformed lymphoid cell lines of SMA patients; assay type: cell-based, human
[2] = system: SMA-like mice (progeny of hSMN2 Smn+/- intercross); test: In utero treatment of SMA-like mice (pregnant mice from hSMN2 Smn+/- intercross); assay type: in vivo, mouse
Description: To evaluate the therapeutic effect of sodium butyrate for severely affected SMA mice, the test compound was administered to pregnant mice from an hSMN2 Smn^+/− intercross. The number mice born with SMA-like phenotypes were counted and classified according to type. In one case, 4-8 μg/day sodium butyrate was administered to pregnant mice from a hSMN2 Smn^+/− intercross ad libitum in their drinking water beginning from 15 day post-coitum until parturition (Table 1).

[3] = system: exon 7-containing SMN protein; test: Western-blot analysis (H2 and H7 antibodies) of SMN protein in SMA patient lymphoid cell lines; assay type: cell-based, human; conditions: cytosolic and nuclear fractions, 4 hours stimulation, 0.5 ng/ml to 5 μg/ml
Description: Lymphoid cells were isolated from SMA patients with different degrees of severity. Whole blood was drawn from the patients, heparinized, then diluted 1:1 with PBS (phosphate buffered saline). The diluted sample was layered on a Ficoll-Hypaque gradient, and centrifuge at 2500 rpm for 30 minutes at room temperature. The buffy coat was collected from the centrifuged sample, washed twice with 5 ml PBS, collected, and resuspended in 5 ml RPMI medium, 0.5 ml Epstein-Barr virus (EBV stock), 50 μl PHA, and 50 μl of cyclosporine (0.2 mg/ml). The virus-treated sample was mixed well and transferred into a T-flask for incubation at 37° C. in a 5% CO2 incubator for 3 weeks.
Rabbits were immunized with synthetic peptides containing either human SMN amino acids 279-288 from exon 7 or amino acids 72-84 from exon 2. Specific antibodies (H7 and H2 batches) were purified from rabbit crude sera with an EAH-sepharose 4B column (Pharmacia) according to the manufacturer's instructions.
Protein samples, prepared from treated and untreated SMA lymphoid cells, were loaded on a 5% polyacrylamide stacking gel above a 12% separating gel, and the gel was run with a discontinuous buffer using Laemmli's method. […] The secondary antibody was detected with a 1.5% solution of 5-bromo-4-chloro-3-indoyl phosphate and 3% nitro blue tetrazolium in a developing buffer (100 mM NaCl, 5 mM MgCl2, 100 mM Tris.HCl, pH 9.5). […]

[4] = treated mothers, 4-8 μg/day from 15 day post-coitum until parturition (untreated 10%)
[5] = treated mothers, 4-8 μg/day from 15 day post-coitum until parturition, 294 total pups

## CCCC(=O)[O-].[Na+] [sodium butyrate]
[1]; treated SMA-like mice
  tail histopathology relative to untreated SMA-like mice: fewer atrophied muscle bundles, less group atrophy, and reduced subcutaneous edema
[1]; treated SMA-like mice (untreated 50%)
  frequency of chronic necrosis originating at the tip of the tail: 2%
[1]; treated type 3 SMA-like mice (untreated about 1 cm, wild-type 6 cm)
  tail length on average: about 5 cm
[1]; type 2 SMA-like mice, drinking water 0.8 or 8 μg/ml, approx. 4-80 μg/day
  survival time longer than untreated mice, on average: 4 to 5 days
[1]; type 3 SMA-like mice
  tail phenotype: close to wild-type
[1]; western blot and immunohistochemistry, multiple tissues including spinal cord motor neurons
  exon 7-containing SMN protein levels in tissues: elevated
Exon 7 of the SMN2 gene; RT-PCR, treated vs untreated cells
  splicing of SMN2 transcripts: changed to include exon 7
Exon 7 of the SMN2 gene; lymphoid cells cultured with 5 ng/ml to 50 μg/ml
  amount of exon 7-containing SMN mRNA: increased
Exon 7 of the SMN2 gene; lymphoid cells, 5 ng/ml to 50 μg/ml
  time of greatest increase of exon 7-containing SMN mRNA after addition of the drug: 4 h
Exon 7 of the SMN2 gene; relative to untreated control, lymphoid cells from all three types of SMA patients
  level of full-length SMN mRNA transcript: increased levels of full-length SMN transcript; also recorded: increase
[2]; higher dose, 40-80 μg/day
  symptoms of progeny from treated mothers vs progeny from untreated mothers: milder symptoms
[2]; treated mothers, 4-8 μg/day from 15 day post-coitum until parturition (untreated 5%)
  percent of pups with Type 2 symptoms: 7%
[2]; [4]
  percent of pups with Type 1 symptoms: 7%
  percent of pups with Type 3 symptoms: 16%
[2]; [5]
  number of pups with Type 2 symptoms: 22
  number of pups with Type 3 symptoms: 48
[2]; treated mothers, 4-8 μg/day in drinking water from 15 day post-coitum until parturition, 294 total pups
  number of pups with Type 1 symptoms: 21
[3]
  amount of intact (exon 7-containing) SMN protein: increase

Source: patent US6376508B1, “Treatments for spinal muscular atrophy” (priority 2000, dated 2002)
